The values below come from the supplement of paper PMC10290057.
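Further: Luminescence-based viability readout, five doses per compound, normalized against on-plate DMSO and empty-well controls, followed by dose-response curve fitting for every drug.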

The assay deals with HCT116. The experiment in a line: efficacy (fitted maximal change in viability relative to DMSO control); higher = less cytotoxic (negative = loss of viability). The note with it: 48 h.
With `N#Cc1ccc(NC(=O)Nc2ccccc2Br)c2nn[nH]c12`, the efficacy was -26%.
Take `CC(C)(C(=O)NCC(F)(F)C(F)(F)F)C(=O)N[C@@H]1C(=O)Nc2ccccc2-c2ccccc21`: the efficacy is -10.6%.
Take `CC(C)(C)C(=O)Oc1ccc2c(c1)nc(NC(=O)c1cccc([N+](=O)[O-])c1)n2CCCO`: the efficacy was -19.1%.
On to `CC(C)(N[S+](=O)([O-])c1ccc2c(Cl)cnc(NC(=N)N)c2c1)C(=O)O`, for which the efficacy was -7.17%.
For the compound `CC(C)(O)c1coc([S+](=O)([O-])NC(=O)Nc2c3c(cc4c2CCC4)CCC3)c1`, the efficacy turned out to be 7.83%.
Turning to `CC(C)(O)CCc1ccc(OCc2cc(-c3cccc(OC(F)F)c3)c3ncccc3c2)cc1`, the efficacy is -82%.
With `CC(C)c1c2cc(-c3ccnc(N[C@H]4CC[C@H](NC5CCOCC5)CC4)n3)ccc2nn1C`, the efficacy was -72.3%.
As for `CC(C)n1cc(-c2ccc3c(c2)N(C)CC3)c2c(N[S+](=O)([O-])c3ccn(C)n3)ccnc21`, the efficacy is -24.7%.
On to `Cc1nc2cc(C(=O)N3CCC4(CC3)CC(=O)c3c(cnn3C(C)C)C4)ccc2[nH]1`, for which the efficacy is -35.5%.
Turning to `Cc1noc(-c2ccc(CSCCC(=O)O)cc2)c1NC(=O)OC(C)c1ccccc1Cl` (stereo not drawn), the efficacy was -36.3%.
The value for `Cc1cnc(-c2cc(N3CCN(C(=O)CC[S+](C)(=O)[O-])CC3)ncc2Cl)c(C)c1` was -93.8%.
Turning to `Cc1cc(SCc2sc(-c3ccc(C(F)(F)F)cc3)nc2C)ccc1OCC(=O)O`, the efficacy is -13.6%.
Regarding `Cc1cc2c(cc1C1(c3ccc(C(=O)O)cn3)CC1)C(C)(C)CCC2(C)C`, the efficacy was -25.8%.
Regarding `CC1=CC=CC=C1N2\C(=N/C3=C(C(=CC=C3)C)C2=O)C[N]4C=NC5=C4N=CN=C5N`, the efficacy is -13.6%.
The value for `Cc1ccnc(N[S+](=O)([O-])c2ccc(NC(=O)Nc3ccc([S+](=O)([O-])Nc4nccc(C)n4)cc3)cc2)n1` was -21.3%; that for `Cc1c(Cn2c(C)nc3c(C(=O)O)cc(N4CCOCC4)cc32)cccc1C(F)(F)F` was -10.9%; that for `Cc1n[nH]c2ncc(C(=O)N3CCC[C@H]3c3ccc(Cl)cc3)cc12` was -17.4%.
Regarding `CC1COC2(CCN(CC2)C/3=N/C(=O)C4=CC(=CC(=C4S3)[N+]([O-])=O)C(F)(F)F)O1` (stereo not drawn), the efficacy is -19.7%.
On to `CCC(C)N(C)C(=O)c1cc2ccccc2c(-c2ccccc2Cl)n1` (stereo not drawn), for which the efficacy was -46.4%.
With `CCc1c(C(=O)NNC(=O)[C@@H](O)c2cc(F)cc(F)c2)ccc(O)c1C`, the efficacy is -5.46%.
For `CCc1ccc(/C=C2/SC(=S)NC2=O)cc1`, the efficacy was -29%.
As to `CCN(CC)C(=O)Cc1csc(N[S+](=O)([O-])c2cccc(Cl)c2C)n1`, the efficacy is -27.3%.
On to `CCN([C@H]1CC[C@@H](CC1)N(C)CCOC)C2=C(C)C(=CC(=C2)C#CCN3CCOCC3)C(=O)NC\C4=C(C)\C=C(\C)NC4=O`, for which the efficacy is -10.4%.
With `CCOC(=O)C(C)OC1=CC=CC2=C1\C=C/N(CC(=O)NC3=CC=C4OCCOC4=C3)C2=O` (stereo not drawn), the efficacy is -19.6%.
On to `CCn1c(C(=O)N(C2CC2)C2CC2)cc2c3c(ncn3C)c(Nc3cc(C)n(C)n3)nc21`, for which the efficacy is -25.7%.
Next, `Cc1cnc(NC(=O)c2cc(Oc3cnc(C(=O)N(C)C)nc3)c3cc(C)oc3c2)cn1`: -6.07%; `CN(C)C(=O)[C@H](O)[C@H](Cc1ccccc1)NC(=O)c1cc2cc(Cl)ccc2[nH]1`: -14.2%.
Next, `Cc1ccc(NC(=O)c2cccc(N(C)C)c2)cc1NC(=O)c1ccc(O)cc1`: -21.6%; `CN(C)CCNC(=O)NC[C@H]1CC[C@@H]2[C@H](O1)c1cc(C(F)(F)F)ccc1N[C@H]2c1ccccc1`: -63.4%.
Next, `Cc1cn2cc(C(=O)N(C)CCO)cc(N[C@@H]3CCOc4cccc(C)c43)c2n1`: -27.6%; `CN(CCOc1ccc(-c2ccc3c(c2)OCO3)cc1C(C)(C)C)CC(=O)O`: -58.3%; `CN1C(=O)N(c2cc(Cl)cc(Cl)c2)C(=O)[C@]12CN(Cc1cc(C(=O)O)cs1)C[C@H]2c1ccc(C#N)cc1`: -6.34%.
For `CN1CCN(c2ccc([N+](=O)[O-])c3no[n+]([O-])c23)CC1`, the efficacy was -19.8%.
Take `CN1CCN(CC1)C\2=C\3/C=C(/C)SC3=N/C4=CC=CC=C4N2`: the efficacy is -17.1%.
`CN1CCN(CCCNc2ncc(Cl)c(-c3cc4c(C(=O)NC5CC5)cccc4s3)n2)CC1`: the efficacy is -28.8%.
For the compound `COc1cc(NC(=O)c2ccc(-c3ccc(Cl)cc3)o2)cc(OC)c1`, the efficacy was -43.9%.
For the compound `COc1ccc([S+](=O)([O-])NCc2ccc(C(=O)NCCc3ccc(Cl)cn3)cc2)cc1`, the efficacy is -62.6%.
With `COc1ccc(Cc2ccc(NC(N)=O)cc2)cc1-c1cccc(Cl)c1`, the efficacy is -74.8%.
Regarding `COc1ccc(CCC(=O)Nc2nc3ccc(Cl)cc3s2)cc1OC`, the efficacy is -14.1%.
Next, `COc1ccc(COc2cc3oc(=O)c4cc(C(C)O)ccc4c3cc2OC)cc1` (stereo not drawn): -22%; `C=C[C@H]1CN2CC[C@H]1C[C@H]2[C@H](O)c1ccnc2ccc(OC)cc12`: -34.1%.
As for `COc1nccc(-c2c(-c3ccc(F)cc3)ncn2C2CCC(O)CC2)n1` (stereo not drawn), the efficacy was -34.5%.
The value for `COc1nccc(-c2c(-c3ccc(F)cc3)ncn2C2CCNCC2)n1` was -39.7%; that for `C=CC(=O)N[C@H]1CN(c2nc(Nc3cn(C)nc3OC)c3ncn(C)c3n2)C[C@@H]1F` was -68%.
Take `COC1CCC(C(=O)c2ccc3nc4c(cc3c2)CCCO4)CC1` (stereo not drawn): the efficacy was -17.2%.
With `COC[C@@H](c1ccc(C(F)(F)F)cc1)N1CCN(C2(C)CCN(C(=O)c3c(C)ncnc3C)CC2)C[C@@H]1C`, the efficacy was -15.4%.
As for `CONC(=O)c1ccccc1Nc1cc(Nc2cc(C)nn2C(C)C)ncc1Cl`, the efficacy was -40.7%.
Next, `C[C@H](c1ccc(F)cc1CCCC(=O)O)N(c1cc(F)ccc1F)[S+](=O)([O-])c1ccc(Cl)cc1`: -30.3%; `Cc1noc(-c2ccc(-c3ccc(C4(C(=O)O)CC4)cc3)cc2)c1NC(=O)O[C@H](C)c1ccccc1`: -40.6%; `C[C@H](NC(=O)Cc1cc(F)cc(F)c1)C(=O)N[C@@H]1C(=O)N(C)c2ccccc2-c2ccccc21`: -23.7%.
Consider `C=CC(=O)N1C[C@H](Nc2ncnc3[nH]ccc23)CC[C@@H]1C`, for which the efficacy was -26.7%.
Take `C[C@](Cc1c[nH]c2ccccc12)(NC(=O)OC1C2CC3CC(C2)CC1C3)C(=O)NC[C@H](NC(=O)CCC(=O)O)c1ccccc1` (stereo partly drawn): the efficacy stood at 9.82%.
Consider `C[C@@]1(C(=O)Nc2ccc(F)nc2)CCCN1c1nc(Nc2cc(C3CC3)[nH]n2)c2cccn2n1`, for which the efficacy was -59.3%.
For `Cn1cc(/C=C2\C(=O)Nc3cccnc32)c2ccccc21`, the efficacy was -35.8%.
In the case of `Cn1cc(-c2ccc3c(c2)CCN3C(=O)Cc2cccc(C(F)(F)F)c2)c2c(N)ncnc21`, the efficacy is -17.9%.
Next, `Cn1cc(-c2ccc(-c3cncc(Cl)c3N3CCC4(CCNC4=O)CC3)cc2)cn1`: -49.2%; `Cn1cc(-c2c[nH]c3ncnc(N4CCOCC4)c23)cn1`: -31.9%.
For `Cn1ccc2cc3c(cc21)CCN3C(=O)Nc1cccnc1`, the efficacy is -22.8%.
Turning to `Clc1cccc(-n2nnnc2NCc2ccccc2Oc2ccccn2)c1Cl`, the efficacy was -32%.
With `O=C(N[C@H]1CN2CCC1CC2)c1ccc(Cl)cc1`, the efficacy is -55.8%.
Next, `O=C(Nc1ccc2c(c1)CCN(Cc1ncn[nH]1)C2)c1ccccc1-c1ccc(C(F)(F)F)cc1`: 17.5%.
For the compound `O=C1NC(=O)/C(=C/c2ccc3c(c2)OC(F)(F)O3)S1`, the efficacy is -22.5%.
For the compound `O=C1NC(=O)/C(=C\c2ccc(-c3ccc(F)cc3)o2)S1`, the efficacy was -23.2%.
Turning to `O=C(Nc1cccnc1)c1cc(-c2ccnc(F)c2)ccc1OCc1ccccc1`, the efficacy is -24.6%.
The value for `N#CN1CCC[C@@H](n2nc(-c3ccc(Oc4ccc(F)cc4F)cc3)c(C(N)=O)c2N)C1` was -38.1%; that for `NC(=O)c1cccc(N)c1` was -10.2%; that for `NC(CC1c2ccccc2Oc2ccccc21)(C(=O)O)C1CC1C(=O)O` (stereo not drawn) was -10.8%.
The value for `Nc1nccc(-c2c(-c3ccc(F)cc3)ncn2C2CCCCC2)n1` was -55.4%; that for `Nc1ncnc2c1C(=O)N(c1ccc([C@H]3CC[C@H](CC(=O)O)CC3)cc1)CCO2` was -5.95%; that for `Nc1nc(OC(c2ccc(-c3cccc(F)c3)cc2)C(F)(F)F)cc(-c2ccc(C[C@H](N)C(=O)O)cc2)n1` (stereo partly drawn) was -21.2%.
For `O=C(NC1CCOCC1)c1ccc(-c2cc(-c3c[nH]nc3-c3ccccn3)ccn2)cc1`, the efficacy is -24%.
The value for `O=C1NC(=O)/C(=C/c2ccc3nccnc3c2)S1` was -27.3%; that for `O=C1\C=C(/OC2=C1C=CC=C2C3=CC=CC=C3)N4CCOCC4` was -24.3%; that for `O=C(O)/C(S)=C/c1ccc(I)cc1` was -6.45%.
The value for `O=[S+]([O-])(O)c1ccc2cc(/N=N/c3cc([S+](=O)([O-])O)c4cccnc4c3O)ccc2c1` was -23.5%; that for `O=C(NC[C@H](O)CN1CCc2ccccc2C1)c1cc(NC2COC2)ncn1` was 13%.
On to `c1cc(-c2sc(-c3ccncc3)c(-c3ccncc3)c2-c2ccncc2)ccn1`, for which the efficacy is -13.8%.
Take `O=C1Cc2cc(C(=O)NC3C[C@H]4CC[C@@H](C3)N4[S+](=O)([O-])CC3CCN(CCCC(F)(F)F)CC3)c(Cl)cc2N1` (stereo partly drawn): the efficacy is -9.6%.
